Article PMC3340011 (Biophysical Chemistry, 2011)
“Also recorded” adds a separate entry of the source.

Assays:
[1] = test system: CaM1–148, sites I and II (N-domain); assay: Fluorescence-monitored equilibrium Ca^2+ titration, sites I and II of CaM1–148; assay type: binding, rat; conditions: for ΔΔG2 = ΔG2^app(CaM+CaV1.2p) − ΔG2^app(CaM): CaM1–148, sites I and II; for effect on Ca^2+-binding affinity of N-domain (in words): compared with IQ1644
[2] = test system: CaM1–80, sites I and II; assay: Fluorescence-monitored equilibrium Ca^2+ titration, sites I and II of CaM1–80; assay type: binding, rat
[3] = test system: CaM76–148, sites III and IV; assay type: binding, rat
[4] = test system: CaM1–148, sites III and IV (C-domain); assay: Fluorescence-monitored equilibrium Ca^2+ titration, sites III and IV of CaM1–148; assay type: binding, rat; conditions: for ΔΔG2 = ΔG2^app(CaM+CaV1.2p) − ΔG2^app(CaM): CaM1–148, sites III and IV
[5] = target: CaM76–148 (C-domain of calmodulin) (Rattus norvegicus, UniProt P0DP29); assay: Fluorescence anisotropy titration of Fl-Cav1.2p with CaM C-domain; assay type: binding
[6] = test system: CaM1–148, sites III and IV (C-domain); conditions: previous study; cited from earlier work
[7] = test system: CaM1–148, sites I and II (N-domain); conditions: previous study; cited from earlier work
[8] = target: CaM1–80 (N-domain of calmodulin) (Rattus norvegicus, UniProt P0DP29); assay: Fluorescence anisotropy titration of Fl-Cav1.2p with CaM N-domain; assay type: binding; conditions: pre-IQ region, calcium-saturated
[9] = Calcium dissociation from fluorescent indicator dye; assay type: binding
[10] = no peptide, 2 μM CaM, pH 7.4, 22 °C, average ± SD
[11] = no peptide, pH 7.4, 22 °C, average ± SD

Compound | ΔΔG2 = ΔG2^app(CaM+CaV1.2p) − ΔG2^app(CaM) [1] | effect on Ca^2+-binding affinity of N-domain (in words) [1] | ΔΔG2 = ΔG2^app(CaM+CaV1.2p) − ΔG2^app(CaM) [2] | ΔΔG2 = ΔG2^app(CaM+CaV1.2p) − ΔG2^app(CaM) [3] | ΔΔG2 = ΔG2^app(CaM+CaV1.2p) − ΔG2^app(CaM) [4] | further results
CC[C@H](C)[C@H](NC(=O)[C@H](CC(C)C)NC(=O)[C@H](Cc1ccccc1)NC(=O)[C@@H](NC(=O)[C@H](C)N)[C@@H](C)O)C(=O)N[C@@H](CCC(N)=O)C(=O)N[C@@H](CCC(=O)O)C(=O)N[C@@H](Cc1ccc(O)cc1)C(=O)N[C@@H](Cc1ccccc1)C(=O)N[C@@H](CCCNC(=N)N)C(=O)N[C@@H](CCCCN)C(=O)N[C@@H](Cc1ccccc1)C(=O)N[C@@H](CCCCN)C(=O)N[C@@H](CCCCN)C(=O)N[C@@H](CCCNC(=N)N)C(=O)N[C@@H](CCCCN)C(=O)N[C@@H](CCC(=O)O)C(=O)N[C@@H](CCC(N)=O)C(=O)NCC(=O)N[C@@H](CC(C)C)C(=O)N[C@H](C(=O)NCC(=O)N[C@@H](CCCCN)C(=O)N1CCC[C@H]1C(=O)N[C@@H](CO)C(=O)N[C@@H](CCC(N)=O)C(=O)O)C(C)C [IQ′1650] | -1.24 kcal/mol | much weaker effect | -0.82 kcal/mol | -3.35 kcal/mol | -3.63 kcal/mol | fold more favorable affinity for CaM76–148 than CaM1–80 ([5]; Ca^2+-saturated): about 100 fold; Kd ([5]; Kd (CaM dissociation from Fl-Cav1.2p), calcium-saturated, CaM76–148, 10 mM CaCl2, pH 7.4, 22 °C, limit): ≤ 10 nM
CaM1–80: N-domain fragment of calmodulin, residues 1–80 | – | – | – | – | – | ΔG1^app (calcium binding) [2, 10]: -5.92 ± 0.38 kcal/mol; ΔG2^app (calcium binding) [2, 10]: -12.76 ± 0.09 kcal/mol
CaM76–148: C-domain fragment of calmodulin, residues 76–148 | – | – | – | – | – | ΔG1^app (calcium binding) [3, 11]: -5.45 ± 0.51 kcal/mol; ΔG2^app (calcium binding) [3, 11]: -14.66 ± 0.13 kcal/mol
H-ELRAIIKKIWKRTSMKLLDQVV-OH [C1614] | -1.10 kcal/mol | much weaker effect | -1.15 kcal/mol | -2.95 kcal/mol | -2.94 kcal/mol | effect on Ca^2+-binding affinity of C-domain of CaM1–148 [6]: increased the Ca^2+-binding affinity of the C-domain of CaM1–148; effect on Ca^2+-binding affinity of N-domain of CaM1–148 [7]: there was not an effect on the N-domain; domain preference, (Ca^2+)2-C-domain ([5]; pre-IQ region, calcium-saturated): preferred C1614
H-FNATLFALVRTALRIKTEGNLE-OH [A1588] | -2.99 kcal/mol | – | -1.55 kcal/mol | -0.72 kcal/mol | -1.05 kcal/mol | domain preference, (Ca^2+)2-N-domain [8]: bound preferentially to A1588; also recorded: higher affinity for CaM1–80 than for CaM76–148; also recorded: binding the N-domain of CaM more favorably than the C-domain; effect on Ca^2+-binding affinity of C-domain (in words) [4]: weak effect
XRhod5F | – | – | – | – | – | fold lower Kd for calcium (vs Oregon Green) [9]: ~ 20 fold
